From patent publication US11751592B2, “Sweetness and taste improvement of steviol glycoside or mogroside sweeteners” (The Coca-Cola Company, priority 2016, dated 2023)

Legend:
panelists [1] = experiment: Taste evaluation of sweetness against sucrose solutions, Example 2 (compound 1 with Mogroside V); type: in vivo, human; details: for sweetness, equally sweet to sucrose in acidic water: two panelists
Protocol: (§1) Ingredients were added to acidic water or acidic water with compound 1 while stirring until solids were visibly dissolved and the sample was poured into a glass bottle and stored at 4° C.
(§2) Taste tests were carried out with two panelists. Bottles were removed from the refrigerator and about 25 ml of beverage was poured into 4 oz-plastic cups. Panelists were given mineral water to rinse their mouth before tasting and between tasting different samples. Unsalted crackers were also given to panelists to eat followed by rinsing their mouth with mineral water before tasting the next sample. The sucrose solutions in Table 4, a sample of Mogroside V in acidic water and a sample of compound 1 and Mogroside V in acidic water were given to panelists. Panelists were asked to evaluate the sweetness of samples against 7%, 8%, 9%, and 10% sucrose solution and describe the difference of taste profile. Panelists were instructed to sip, evaluate the sweetness, and then spit the samples in cups provided for that purpose.

panelists [2] = experiment: Taste evaluation of sweetness against sucrose solutions, Example 3 (compound 1 with Rebaudioside A); type: in vivo, human; details: for sweetness, equally sweet to sucrose in acidic water: two panelists
Protocol: as §1
as §2, with “Rebaudioside A” for “Mogroside V”, “differences in the” for “difference of”, “profiles.” for “profile.”

panelists [3] = experiment: Taste evaluation of sweetness against sucrose solutions, Example 1 (compound 1 with Rebaudioside M); type: in vivo, human
Protocol: as §1
Taste tests were carried out with two panelists. Bottles were removed from the refrigerator and about 25 ml of beverage was poured into 4 oz-plastic cups. Panelists were given mineral water to rinse their mouth before tasting and between tasting different samples. Unsalted crackers were also given to panelists to eat followed by rinsing their mouth with mineral water before tasting the next sample.
First, two panelists assessed the sweetness of 5 ppm of compound 1 in acidic water against 1.5% sucrose solution in acidic water.
Sucrose solutions in Table 5, a sample of Rebaudioside M in acidic water and a sample of compound 1 and Rebaudioside M in acidic water were given to panelists. Panelists were asked to evaluate the sweetness of samples against 7%, 8%, 9%, and 10% sucrose solution and describe the differences in the taste profiles. Panelists were instructed to sip, evaluate the sweetness, and then spit the samples in cups provided for that purpose.

[4] = Solubility in water during sample preparation; type: physicochemical; details: 2.5 mg in 500 g water, initially, before microwave, sonication and agitation
Protocol: The sample was treated with Microwave (1 min), Sonication (15 min), and agitation (30 min) repeatedly until the solution became visually clear. The solution was cooled at room temperature and citric acid was added.

[5] = 5 ppm compound 1 and 400 ppm Mogroside V in acidic water, both panelists
[6] = 5 ppm compound 1 and 320 ppm Rebaudioside M in acidic water
[7] = 5 ppm compound 1 and 400 ppm Rebaudioside A in acidic water

## C[C@H](CC[C@@H](O[C@@H]1O[C@H](CO[C@@H]2O[C@H](CO)[C@@H](O)[C@H](O)[C@H]2O)[C@@H](O)[C@H](O)[C@H]1O[C@@H]1O[C@H](CO)[C@@H](O)[C@H](O)[C@H]1O)C(C)(C)O)[C@H]1CC[C@@]2(C)[C@@H]3CC=C4[C@@H](CC[C@H](O[C@@H]5O[C@H](CO[C@@H]6O[C@H](CO)[C@@H](O)[C@H](O)[C@H]6O)[C@@H](O)[C@H](O)[C@H]5O)C4(C)C)[C@]3(C)[C@H](O)C[C@]12C [Mogroside V, reference compound]
Panelists [1]; 400 ppm Mogroside V in acidic water, without compound 1
  sweetness, equally sweet to sucrose in acidic water: 7 % sucrose

## C=C1C[C@@]23CC[C@H]4[C@@](C)(CCC[C@@]4(C)C(=O)O[C@@H]4O[C@H](CO)[C@@H](O)[C@H](O)[C@H]4O)[C@@H]2CC[C@]1(O[C@@H]1O[C@H](CO)[C@@H](O)[C@H](O[C@@H]2O[C@H](CO)[C@@H](O)[C@H](O)[C@H]2O)[C@H]1O[C@@H]1O[C@H](CO)[C@@H](O)[C@H](O)[C@H]1O)C3 [Rebaudioside A, reference compound]
Panelists [2]; 400 ppm Rebaudioside A in acidic water, without compound 1
  sweetness, equally sweet to sucrose in acidic water: 7 % sucrose

## C=C1C[C@@]23CC[C@H]4[C@@](C)(CCC[C@@]4(C)C(=O)O[C@@H]4O[C@H](CO)[C@@H](O)[C@H](O[C@@H]5O[C@H](CO)[C@@H](O)[C@H](O)[C@H]5O)[C@H]4O[C@@H]4O[C@H](CO)[C@@H](O)[C@H](O)[C@H]4O)[C@@H]2CC[C@]1(O[C@@H]1O[C@H](CO)[C@@H](O)[C@H](O[C@@H]2O[C@H](CO)[C@@H](O)[C@H](O)[C@H]2O)[C@H]1O[C@@H]1O[C@H](CO)[C@@H](O)[C@H](O)[C@H]1O)C3 [Rebaudioside M, reference compound]
Panelists [3]; 320 ppm Rebaudioside M in acidic water, without compound 1, two panelists
  sweetness, equally sweet to sucrose in acidic water: 8 % sucrose

## CC(C)CC(=O)N1CCC[C@H](COc2cccc3c2C(N)=NS(=O)(=O)N3)C1 [compound 1, (S)-1-(3-(((4-amino-2,2-dioxido-1H-benzo[c][1,2,6]thiadiazin-5-yl)oxy)methyl)piperidin-1-yl)-3-methylbutan-1-one]
Panelists [1]; 5 ppm compound 1 and 400 ppm Mogroside V in acidic water, compared to the sample with just Mogroside V, one panelist
  taste profile: mouthfeel: more mouthfeel
Panelists [1]; [5]
  taste profile: bitterness: not bitter
  taste profile: sweet linger: slight sweet linger
  taste profile: sweetness onset: slower sweetness onset
Panelists [1]; 5 ppm compound 1 and 400 ppm Mogroside V in acidic water
  sweetness, equally sweet to sucrose in acidic water: 10 % sucrose
Panelists [3]; 5 ppm compound 1 alone in acidic water, two panelists
  sweetness against sucrose solution in acidic water: < 1.5 % sucrose
Panelists [3]; [6]
  taste profile: bitterness: no bitterness
  taste profile: mouthfeel: more mouthfeel
Panelists [3]; 5 ppm compound 1 and 320 ppm Rebaudioside M in acidic water, two panelists
  sweetness, equally sweet to sucrose in acidic water: 10 % sucrose
[4]
  solubility in water: not completely soluble
Panelists [2]; [7]
  taste profile: bitterness: more bitter
  sweetness, equally sweet to sucrose in acidic water: 7 % sucrose
Panelists [2]; 5 ppm compound 1 in acidic water containing 400 ppm Rebaudioside A
  sweetness enhancement: does not enhance the sweetness
